According to patent US20260027073A1, “USE OF SMALL-MOLECULE COMPOUND HAVING NAPHTHYLAMINE STRUCTURE” (HANGZHOU PHECDAMED CO., LTD., priority 2023, published 2026):

Legend:
APP/PS1 mice = experiment: Cognitive dysfunction in APP/PS1 mice; type: in vivo
Experimental: Male transgenic APP/PS1 mice were purchased from the Model Animal Research Center of Nanjing University, and after being raised to 12 weeks old, the APP/PS1 mice were divided into three groups: normal C57 group (WT), model control group (APP/PS1+Vehicle), and TJ01-013 treatment group (APP/PST+TJ01-013). The mode of administration was by oral gavage, normal group and model control group were administered vehicle by oral gavage, the concentration of TJ01-013 was 30 mg/kg, the gavage volume was 5 ml/kg, the frequency of administration was once a day, and the administration period was 3 months. • (2) Water maze experiment
The water maze device is a circular pool (140 cm in diameter) filled with dissolved titanium dioxide water, keeping the water temperature at 22° C. A platform with a diameter of 12 cm was placed at a fixed position 1 cm below the water surface, and the mice were trained in four quadrants every day for five consecutive days. Each quadrant lasted 60 seconds or until the mice found the platform. […] All parameters were recorded by a video tracking system.
Mouse heart perfusion for brain extraction: APP/PS1 mice and control C57BL/6J mice were anesthetized, and after they became unconscious, the limbs were fixed on a dissection table in a fuming hood, and the abdominal skin was cut with scissors after alcohol disinfection to expose the liver. The diaphragm was quickly cut, and the heart was exposed by turning upward after clamping the xiphoid with hemostatic forceps. Prepared PBS was injected into the left ventricle, noting that the direction was toward the aorta. The peristaltic pump was turned on after opening the right auricle and the blood was drained at a low rate at first. When the heart stopped beating or the fluid pumped at the right auricle was clarified and colorless, the mouse liver can be seen to turn grayish white. The fur was cut open along the midline of the mouse hindbrain with scissors, and the skull was exposed, then forceps were inserted from the criss-cross of the mouse's brain shell, and scissors were used to assist in peeling off the skull, and then the intact whole brain was removed. The fresh mouse whole brain was halved and placed in a 5 mL centrifuge tube, and 4 mL of 4% paraformaldehyde fixative was added to fix for 24 h, sections were made for antigenic repair, incubated for 30 min with dropwise adding of BSA at a concentration of 3-5%, and stained overnight with polyclonal rabbit anti-GFAP antibody (1:100) and mouse anti-β-amyloid protein 1-16 antibody (1:100), and after the sections were washed in PBS three times, the corresponding fluorescent secondary antibody was added dropwise to cover the tissue, and the sections were incubated in dark for 1 h, the slides were washed and stained with DAPI staining solution added dropwisely for 10 min, and the sections were sealed with resin sealer, and finally imaged with Cytation3.
Mouse brain tissue homogenates were prepared according to the brain tissue homogenization method described in the Life Technologies ELISA Technical Guide. […]

[1] = test system: cisplatin-induced hearing impairment model in mice; experiment: Cisplatin-induced hearing damage; type: in vivo, C57 mice
Experimental: Select 8-week-old C57 male mice weighing 22-25 g, according to the previous studies and the previous laboratory exploration, mice were induced to have hearing damage by 4 mg/kg of cisplatin, and a certain amount of cisplatin was dissolved in 0.9% saline of the model control group, and then intraperitoneally injected into the mice for four consecutive days, with the volume of the intraperitoneal injection of 5 ml/kg, and then intraperitoneally injected into the mice for four consecutive days with the volume of 0.9% saline for recovery and alleviation, the injection was prescribed at the same time point every day, and no treatment was done on the 9th day to conduct hearing test or dissect the mice for subsequent experiments. […]
The mice were sacrificed by neck dissection, and the cochlea was removed from mice by neck dissection, and processed under the anatomical microscope to expose the round window and the oval window, the cochlear apex was perforate, and the round window, the oval window and the cochlear apex were perfused with 4% PFA solution, and then the whole cochlea was put into 4% PFA solution for fixation, and was shaken overnight at 4° C. […] Finally, photographs were taken using a fluorescence microscope.

O=C(O)C[S+]([O-])c1cc(NS(=O)(=O)c2ccc(Br)cc2)c2ccccc2c1O (stereo not shown) [I-1]
time to find the platform (water maze) (APP/PS1 mice; 30 mg/kg oral gavage, 3 months, FIG. 42): significantly reduced
astrocyte activation in the hippocampal region (GFAP) (APP/PS1 mice; FIG. 44): significantly reduced
number and size of Aβ plaques (APP/PS1 mice; FIG. 44): significant decrease
amount of Aβ in the brain tissues (Elisa) (APP/PS1 mice; FIG. 45): significantly decreased
number of crossing over the platform (water maze) (APP/PS1 mice; vs APP/PS1 Vehicle group, FIG. 43): significantly larger
hearing thresholds (ABR) ([1]; 4, 8, 16, 24, 32 kHz, 30 mg/kg gavage, 8 days, FIG. 46): significantly decreased
loss of hair cells (Myo7a, cochlear basement membrane) ([1]; apical, middle, base gyrus, FIG. 47): significantly reduced the loss of hair cells
